{
  "source": "paper PMC10517462",
  "about": "“Small molecule targeting of the p38/Mk2 stress signaling pathways to improve cancer treatment” (BMC Cancer, 2023)",
  "assay": "Pharmacokinetics of MK2.III in CD-1 mice (HPLC-MS/MS)",
  "type": "in vivo, CD-1 mouse",
  "experimental": "We investigated the pharmacokinetics (PK) and bioavailability of small molecules (MK2.III) with intraperitoneal and intravenous injection before studying its tumor suppressor properties in combination with DNA-damaging agents. For this set of experiments CD-1 mouse line (male,7 weeks, body weight of 23–25 g, n = 198, Charles River) was used with a one-time intraperitoneal injection (IP) of 2, 10, and 50 mg/kg doses of the MK2.III or 2 mg/kg intravenous injection (IV) of the same drug. The small molecule was prepared using PBS containing 10% DMSO. MK2.III was isolated from mouse serum using protein settling method with acetonitrile and drug concentrations were detected using HPLC – MS/MS.\nBlood samples were obtained from the retro-orbital sinus (at […] for IV groups; at […] for IP groups, respectively) in polypropylene tubes containing 20 μl of 5% EDTA. Blood plasma was separated by centrifugation at 1500 g for 10 min and was stored at -80 °C until analysis. Data were obtained from six animals per time.\nAn Agilent 1260 Infinity system, a hybrid triple-quadrupole mass spectrometer, and QTRAP 5500 electrospray ionization were used for determining the MK2.III concentration in blood plasma. Separations were achieved using a YMC Triart C18 50 × 2,1 mm, 1,9 μm column. The mobile phase consisted of A (0.1% aqueous formic acid) and B (0.1% formic acid in acetonitrile). The gradient elution t = 0, A:B 95:5; t = 2 min A:B 5:95; t = 2.1 A:B 5:95; t = 2.2 A:B 95:5; t = 2.8 A:B 95:5; flow rate was 0.5 mL min − 1; Retention time—2.8 min. The injection volume was 2 μL. The temperature of the column was set at 40 °C. Tolbutamide was selected as an internal standard. Thawed plasma (45 μL) was transferred to a microtube (1.1 mL volume), treated with a standard solution (5 μL) of the analytes in acetonitrile: water (1:1), stirred on a vortex mixer for 10 s, treated with tolbutamide solution (200 ng/ml), stirred again on the vortex mixer for 10 s, and then proteins were precipitated in the cold at + 4 °C for 15 min, centrifuged for 10 min at 1500 g. The supernatant (150 µl) was transferred to a clean 96-well plate for HPLC–MS/MS analysis. Samples were stored at a temperature not exceeding -70 °C until analysis. The calculation of pharmacokinetic parameters was performed by using Phoenix® WinNonlin® software, version 6.3 (Pharsight Corp., Cary, NC, USA).",
  "key": {"[1]": {"conditions": "2 mg/kg intraperitoneal, mice serum"}, "[2]": {"conditions": "10 mg/kg intraperitoneal, mice serum"}, "[3]": {"conditions": "50 mg/kg intraperitoneal, mice serum"}},
  "data": [
    {"smiles": "O=C1NCCc2[nH]c(-c3ccnc(-c4cnc5ccccc5c4)c3)cc21", "note": "[MK2.III]", "values": [
      {"measurement": "AUClast", "setting": "[1]", "value": "1,99 hr*ng/ml"},
      {"measurement": "Cmax", "setting": "[1]", "value": "2,15 ng/ml"},
      {"measurement": "MRTlast", "setting": "[1]", "value": "1,28 hr"},
      {"measurement": "Tmax", "setting": "[1]", "value": 2, "unit": "h"},
      {"measurement": "Highest concentration of the drug in serum", "setting": "2 mg/kg intravenous, at the time of the injection", "value": 11, "unit": "ng/mL"},
      {"measurement": "Serum concentration", "setting": "2 mg/kg intravenous, one-hour interval", "value": 2.15, "unit": "ng/mL"},
      {"measurement": "AUCinf", "setting": "[2]", "value": 203, "unit": "ng·h/mL"},
      {"measurement": "AUClast", "setting": "[2]", "value": 130, "unit": "ng·h/mL"},
      {"measurement": "Cl/F", "setting": "[2]", "value": 821, "unit": "mL/min/kg"},
      {"measurement": "Cmax", "setting": "[2]", "value": "38,3 ng/ml"},
      {"measurement": "Kel", "setting": "[2]", "value": "0,05 1/hr"},
      {"measurement": "MRTinf", "setting": "[2]", "value": "21,7 hr"},
      {"measurement": "MRTlast", "setting": "[2]", "value": "8,59 hr"},
      {"measurement": "T1/2", "setting": "[2]", "value": "14,4 hr"},
      {"measurement": "Tmax", "setting": "[2]", "value": "0,5 hr"},
      {"measurement": "Vz/F", "setting": "[2]", "value": 1027, "unit": "L/kg"},
      {"measurement": "AUCinf", "setting": "[3]", "value": 548, "unit": "ng·h/mL"},
      {"measurement": "AUClast", "setting": "[3]", "value": 227, "unit": "ng·h/mL"},
      {"measurement": "Cl/F", "setting": "[3]", "value": 1520, "unit": "mL/min/kg"},
      {"measurement": "Cmax", "setting": "[3]", "value": "42,4 ng/ml"},
      {"measurement": "Kel", "setting": "[3]", "value": "0,02 1/hr"},
      {"measurement": "MRTinf", "setting": "[3]", "value": "42,3 hr"},
      {"measurement": "MRTlast", "setting": "[3]", "value": "10,3 hr"},
      {"measurement": "T1/2", "setting": "[3]", "value": "28,3 hr"},
      {"measurement": "Tmax", "setting": "[3]", "value": "0,5 hr"},
      {"measurement": "Vz/F", "setting": "[3]", "value": 3718, "unit": "L/kg"},
      {"measurement": "Cmax", "setting": "higher doses (10 and 50 mg/kg) intraperitoneal, within 30 min after injection", "value": "around 40 ng/ml"},
      {"measurement": "Linearity of pharmacokinetics", "setting": "range of 2-50 mg/kg dose, intraperitoneal", "value": "does not represent linearity"}
    ]}
  ]
}
